This series is described as follows: Stability of (7aS,2′S)-2-oxo-clopidogrel in plasma containing the reducing agent (Example 8). It counts as in vitro ADME, human. The following applies: plasma with reducing agent; for Measured concentration: single replicates. On the procedure:
S1. Whole blood treatment: taking 3 ml of human whole blood anticoagulated with EDTA-K2 after oral administration of (7aS,2′S)-2-oxo-clopidogrel, cooling to 4° C. on ice, then adding thereto 60 μl of tris(2-carboxyethyl) phosphine at 100 mg/ml; shaking well and then centrifuging (2-8° C., 3000 rpm for 10 min), and collecting plasma for later use.
S2. Plasma sample pre-treatment: taking 100 μl of the plasma, adding 5 μl of an internal standard working solution and 300 μl of acetonitrile respectively; after vortex mixing, centrifuging at 2-8° C. and 10,000 r/min for 10 min, and collecting the supernatant for later use.
S3. LC-MS/MS analysis: injecting 10 μl of the supernatant prepared from step S2 for determination, where the liquid chromatography conditions are: • the chromatographic column is Kinetex® 1.7 μm C18 100 A 100×2.1 mm; the column temperature is 40° C.; the mobile phase is acetonitrile-0.2% aqueous formic acid solution with a flow rate of 0.2 ml/min; and a gradient elution is carried out as specified in the table below:
ESI ion source, positive ion detection in multiple reaction monitoring mode (MRM); the quantitatively analyzed ions (7aS,2′S)-2-oxo-clopidogrel: m/z 338.100→155.000, IS: m/z 341.100→158.000, a capillary voltage of 4.0 KV, a cone voltage of 25 V, a desolvation gas temperature of 400° C. and a source temperature of 150° C. The optimal collision energy is 20 eV.
Blank plasma was taken and operated according to S1 of Example 1 to obtain a blank plasma containing the reducing agent. Subsequently, a standard series solution of (7aS,2′S)-2-oxo-clopidogrel was added to prepare quality control samples containing (7aS,2′S)-2-oxo-clopidogrel at concentrations of 0.1 and 12 ng/ml. The plasma samples were examined for stability after ice box short-term placement, stability after room temperature short-term placement, stability after freeze-thaw cycle and stability after long-term cryopreservation.
The plasma samples at different placing time points were taken to examine the stability by pre-treating the plasma samples according to the method of S2 of Example 1, followed by LC/MS/MS determination according to the method of S3.

Where [1] appears, read: placing at room temperature for 1 h, theoretical 0.1 ng/mL.
The mark [2] stands for this setting: placing at room temperature for 1 h, theoretical 12.0 ng/mL.
The mark [3] stands for this setting: placing below −60° C. for 36 days, theoretical 0.1 ng/mL.
Where [4] appears, read: placing in ice box for 4 h, theoretical 12.0 ng/mL.
Where [5] appears, read: three cycles of freeze-thaw, theoretical 0.1 ng/mL.
Setting [6] is: three cycles of freeze-thaw, theoretical 12.0 ng/mL.

“And” between values parts separate entries of the source, which are not always exact repeats. Equal entries are not always repeated.

`COC(=O)[C@H](c1ccccc1Cl)N1CC[C@@H]2SC(=O)C=C2C1` [(7aS,2′S)-2-oxo-clopidogrel, methyl(S)-2-(2-chlorophenyl)-2-((S)-2-oxo-2,6,7,7a-tetrahydrothieno[3,2-c]pyridin-5 (4H)-yl)acetate]: the recovery at 1 h, 0.1 ng/mL (human, plasma containing the reducing agent (TCEP), placing at room temperature for 1 h, theoretical 0.1 ng/mL, read-out: Recovery rate) was 102%. Also, the recovery at 1 h, 12 ng/mL (human, plasma containing the reducing agent (TCEP), placing at room temperature for 1 h, theoretical 12.0 ng/mL, read-out: Recovery rate) was 99.4%. The recovery at 36 days, 0.1 ng/mL (human, plasma containing the reducing agent (TCEP), placing below −60° C. for 36 days, theoretical 0.1 ng/mL, read-out: Recovery rate) was 96.4%. Besides, the recovery at 36 days, 12 ng/mL (human, plasma containing the reducing agent (TCEP), placing below −60° C. for 36 days, theoretical 12.0 ng/mL, read-out: Recovery rate) was 97.7%. The recovery at 4 h, 0.1 ng/mL (human, plasma containing the reducing agent (TCEP), placing in ice box for 4 h, theoretical 0.1 ng/mL, read-out: Recovery rate) came to 100%. The recovery at 4 h, 12 ng/mL (human, plasma containing the reducing agent (TCEP), placing in ice box for 4 h, theoretical 12.0 ng/mL, read-out: Recovery rate) was 98.5%. In addition, under “human, plasma containing the reducing agent (TCEP), three cycles of freeze-thaw, theoretical 0.1 ng/mL, read-out: Recovery rate”, the recovery at 0.1 ng/mL was determined as 100%. Besides, where the note is “human, plasma containing the reducing agent (TCEP), three cycles of freeze-thaw, theoretical 12.0 ng/mL, read-out: Recovery rate”, the recovery at 12 ng/mL was 99.3%. Further, the Average measured concentration was 0.1021 ng/mL under setting [1]; 11.9269 ng/mL under setting [2]; 0.0964 ng/mL under setting [3]; 11.8184 ng/mL under setting [4]; 0.1003 ng/mL under setting [5]; 11.9191 ng/mL under setting [6]. Besides, the Measured concentration is, setting by setting: under setting [1], 0.1013 ng/mL and 0.1027 ng/mL and 0.1020 ng/mL and 0.1040 ng/mL and 0.1007 ng/mL; under setting [2], 11.8349 ng/mL and 11.7245 ng/mL and 11.8592 ng/mL and 12.1616 ng/mL and 12.0541 ng/mL; under setting [3], 0.0980 ng/mL and 0.0940 ng/mL; (placing in ice box for 4 h, theoretical 0.1 ng/mL) 0.1013 ng/mL (2×) and 0.0960 ng/mL; under setting [4], 12.0320 ng/mL and 11.7632 ng/mL and 11.6883 ng/mL and 11.8822 ng/mL and 11.7261 ng/mL; under setting [5], 0.1007 ng/mL (2×) and 0.1013 ng/mL (2×) and 0.0973 ng/mL. In addition, the Measured concentration under setting [6] was 11.9123 ng/mL and 11.8416 ng/mL and 11.9078 ng/mL and 11.8995 ng/mL and 12.0342 ng/mL.
